Consider 17 compounds from ChEMBL document CHEMBL4765385, “Synthesis and biological evaluation of β-lapachone-monastrol hybrids as potential anticancer agents” (Eur J Med Chem, 2020).

Active and inactive are the calls of the source. The rule behind the calls is not given here.

Data set [1] relates to HepG2. Nature of the data set: Antiproliferative activity against human HepG2 cells measured after 48 hrs by MTT assay. Particulars: HepG2, 48 h.
Data set [2] deals with NCI-H596. As to the kind of experiment: Antiproliferative activity against human NCI-H596 cells measured after 48 hrs by MTT assay. Type of data set: functional, cell-based. Particulars: NCI-H596, 48 h.
For data set [3], the system named is A549. Nature of the data set: Antiproliferative activity against human A549 cells measured after 48 hrs in presence of NQO1 inhibitor dicoumarol by MTT assay. Type of data set: functional, cell-based. Particulars: A549, 48 h.
A further data set relates to L02. As to the kind of experiment: Cytotoxicity against human L02 cells measured after 48 hrs by MTT assay. The data set is classed as cell-based. Particulars: L02, 48 h.
The target of data set [4] is NAD(P)H dehydrogenase [quinone] 1 (Homo sapiens, UniProt P15559). Nature of the data set: Substrate activity at recombinant human C-terminal His-tagged NQO1 (1 to 274 residues) expressed in Escherichia coli assessed as metabolic rate by measuring NADPH oxidation per micromol protein at 10 mmol/L measured at 5 secs interval for 1 min by UV-Visible Spectrophotometric method. The data set is classed as ADME.

The test system of data set [5] is A549. As to the kind of experiment: cells. Particulars: Homo sapiens, A549, 48 h.
Another data set in a line: in vitro. To be noted: human, L02 cells and A549 cells.
The subject of data set [6] is HepG2. Nature of the data set: Induction of reactive oxygen species production in human HepG2 cells at 5 uM measured after 5 hrs by DCFH-DA staining based flow cytometry. The data set is classed as functional, cell-based.
Data set [7] relates to NCI-H596. Nature of the data set: Induction of reactive oxygen species production in human NCI-H596 cells at 5 uM measured after 5 hrs by DCFH-DA staining based flow cytometry. Type of data set: functional, cell-based.
The subject of data set [8] is HepG2. As to the kind of experiment: Antitumor activity against human HepG2 cells xenografted in BALB/c athymic nude mouse assessed as tumor growth inhibition at 20 mg/kg, iv administered at 2 days interval 19 days by caliper method relative to control. Type of data set: functional. Particulars: 456 h, time 19 day, read-out: TGI.

With `O=C1C(=O)c2ccccc2C2=C1C(c1cccc(O)c1Cl)NC(=S)N2` (configuration not stated), the IC50 with HepG2 [1] came to 1400 nM; in the data set on NCI-H596 [2], 3090 nM; in the data set with A549 [3], 1330 nM; with L02, 1640 nM; in the data set with A549 [5], 1020 nM. Further, the Drug metabolism in [4] is 1273 micromol/min/micromol protein. The selectivity ratio in “in vitro” was determined as 1.61.
For the compound `O=C1C(=O)c2ccc(Cl)cc2C2=C1C(c1cccc(O)c1)NC(=S)N2` (configuration not stated), the IC50 worked out at 1380 nM in the data set on HepG2 [1]; 1560 nM with NCI-H596 [2]; 1260 nM in the data set with A549 [3]; 1680 nM in the data set with L02; 950 nM with A549 [5]. The Drug metabolism in [4] was 2398 micromol/min/micromol protein. Moreover, the selectivity ratio in “in vitro” amounted to 1.77.
For the compound `COc1cccc2c1C(=O)c1c(O)c3c(c(O)c1C2=O)C[C@@](O)(C(=O)CO)C[C@@H]3O[C@H]1C[C@H](N)[C@H](O)[C@H](C)O1` [DOXORUBICIN], the concentration for half-maximal inhibition (IC50) with NCI-H596 [2] was found to be 1080 nM; with A549 [3], 1200 nM; with L02, 2180 nM; with A549 [5] it was 1320 nM.
For the compound `O=C1C(=O)c2ccccc2C2=C1C(c1cccc(O)c1)NC(=S)N2` (configuration not stated), the IC50 in the data set on HepG2 [1] is 2120 nM; in the data set on NCI-H596 [2], 2490 nM; with A549 [3], 1710 nM; in the data set with L02, 2880 nM; in the data set with A549 [5], 370 nM. The Drug metabolism in data set [4] was 1128 micromol/min/micromol protein. The selectivity ratio in “in vitro” came to 7.78.
For `O=C1C(=O)c2cc(F)ccc2C2=C1C(c1cccc(O)c1)NC(=S)N2` (configuration not stated), the half-maximal inhibitory concentration (IC50) with HepG2 [1] is 1340 nM; with NCI-H596 [2] it was 1580 nM; in the data set with A549 [3], 1590 nM; in the data set with L02, 1490 nM; in the data set with A549 [5], 870 nM. Besides, the Drug metabolism in data set [4] was 1513 micromol/min/micromol protein. The selectivity ratio in “in vitro” was 1.71.
On to `O=C1C(=O)c2ccccc2C2=C1C(c1cc(O)cc(Cl)c1)NC(=S)N2` (configuration not stated), for which the IC50 worked out at 1690 nM in the data set with HepG2 [1]; 17100 nM in the data set with NCI-H596 [2]; 1430 nM in the data set on A549 [3]; 4580 nM in the data set on L02; 960 nM in the data set with A549 [5]. Moreover, the Drug metabolism in [4] is 941 micromol/min/micromol protein. Moreover, the selectivity ratio in “in vitro” came to 4.77.
`O=C1C(=O)c2ccccc2C2=C1C(c1cc(O)ccc1F)NC(=S)N2` (configuration not stated): the IC50 came out at 1190 nM with HepG2 [1]; 7690 nM in the data set with NCI-H596 [2]; 1510 nM with A549 [3]; 1560 nM in the data set with L02; 980 nM in the data set with A549 [5]. The Drug metabolism in data set [4] is reported as 528 micromol/min/micromol protein. For the same compound, the selectivity ratio in the data set “in vitro” turned out to be 1.59.
Take `O=C1C(=O)c2ccccc2C2=C1C(c1ccc(Cl)c(O)c1)NC(=S)N2` (configuration not stated): the half-maximal inhibitory concentration (IC50) in the data set with HepG2 [1] was 1580 nM; with NCI-H596 [2], 1810 nM; with A549 [3] it was 1410 nM; in the data set with L02, 1580 nM; in the data set with A549 [5], 640 nM. For the same compound, the Drug metabolism in [4] is 734 micromol/min/micromol protein. Also, in the data set “in vitro”, the selectivity ratio is 2.47.
Consider `Cc1cc(O)cc(C2NC(=S)NC3=C2C(=O)C(=O)c2ccccc23)c1` (configuration not stated), for which the IC50 with HepG2 [1] came to 1340 nM; in the data set with NCI-H596 [2], 10900 nM; in the data set on A549 [3], 1210 nM; in the data set with L02, 8410 nM; with A549 [5], 490 nM. Besides, the Drug metabolism in data set [4] is given as 539 micromol/min/micromol protein. Further, in “in vitro”, the selectivity ratio stood at 17.2.
For `COc1ccc2c(c1)C1=C(C(=O)C2=O)C(c2cc(C)cc(O)c2)NC(=S)N1` (configuration not stated), the IC50 in the data set on HepG2 [1] was 1700 nM; in the data set with NCI-H596 [2], 2520 nM; in the data set with A549 [3], 1500 nM; in the data set with L02 it was 1860 nM; in the data set with A549 [5], 320 nM. In [4], the Drug metabolism was 1427 micromol/min/micromol protein. The selectivity ratio in the data set “in vitro” was 5.81.
For `O=C1C(=O)c2ccccc2C2=C1C(c1cc(O)cc(Br)c1)NC(=S)N2` (configuration not stated), the IC50 in the data set on HepG2 [1] amounted to 3200 nM; in the data set on NCI-H596 [2] it was 7600 nM; with A549 [3], 3000 nM; in the data set on L02, 3050 nM; in the data set on A549 [5] it was 2420 nM. Besides, the Drug metabolism in data set [4] is 852 micromol/min/micromol protein. Besides, the selectivity ratio in the data set “in vitro” was 1.26.
Take `O=C1C(=O)c2ccccc2C2=C1C(c1cc(O)ccc1Br)NC(=S)N2` (configuration not stated): the half-inhibitory concentration (IC50) was 1310 nM in the data set with HepG2 [1]; 1610 nM in the data set with NCI-H596 [2]; 1550 nM in the data set on A549 [3]; 1510 nM in the data set on L02; 480 nM in the data set with A549 [5]. Further, the Drug metabolism in [4] is on record as 1083 micromol/min/micromol protein. For the same compound, the selectivity ratio in “in vitro” worked out at 3.15.
Regarding `CCOC(=O)C1=C(C)NC(=S)NC1c1cccc(O)c1` (configuration not stated) [MONASTROL], in [4], the Drug metabolism entry is “Metabolite_Notdetected”.
As to `O=C1C(=O)c2cccc(Br)c2C2=C1C(c1cccc(O)c1)NC(=S)N2` (configuration not stated), the half-inhibitory concentration (IC50) with HepG2 [1] stood at 2890 nM; with NCI-H596 [2], 1980 nM; with A549 [3], 2020 nM; in the data set on L02 it was 1660 nM; in the data set on A549 [5] it was 1940 nM. For the same compound, the Drug metabolism in data set [4] is given as 2012 micromol/min/micromol protein. For the same compound, the selectivity ratio in the data set “in vitro” turned out to be 0.86.
As to `CC1(C)CCC2=C(O1)c1ccccc1C(=O)C2=O` [LAPACHONE], the IC50 in the data set on HepG2 [1] was 2830 nM; in the data set on NCI-H596 [2], 5060 nM; in the data set on A549 [3], 6000 nM; in the data set with L02, 4540 nM; in the data set on A549 [5] it was 3320 nM. In addition, the result with HepG2 [6] and in the data set with NCI-H596 [7] was Active. Moreover, the inhibition in vivo at 20 mg/kg in the data set with HepG2 [8] was 67.4%. The selectivity ratio in “in vitro” is 1.37.
In the case of `COc1ccc2c(c1)C1=C(C(=O)C2=O)C(c2cccc(O)c2)NC(=S)N1` (configuration not stated), the half-inhibitory concentration (IC50) in the data set on HepG2 [1] stood at 1570 nM; in the data set with NCI-H596 [2] it was 2200 nM; with A549 [3] it was 1190 nM; in the data set with L02 it was 1750 nM; in the data set with A549 [5], 300 nM. The Drug metabolism in data set [4] is reported as 997 micromol/min/micromol protein. Moreover, in the data set “in vitro”, the selectivity ratio is 5.83.
As to `COc1cc2c(cc1OC)C1=C(C(=O)C2=O)C(c2cccc(O)c2)NC(=S)N1` (configuration not stated), the IC50 was found to be 1530 nM in the data set on HepG2 [1]; 1760 nM in the data set with NCI-H596 [2]; 1490 nM in the data set on A549 [3]; 1710 nM in the data set on L02; 1770 nM with A549 [5]. Besides, in data set [4], the Drug metabolism is on record as 614 micromol/min/micromol protein. Further, in the data set “in vitro”, the selectivity ratio stood at 0.97.
